Assay results published in patent US11479536B1 (King Abdulaziz University, priority 2022, dated 2022).

Key:
HL60 cell line = test: Cell viability assay of HL60 cell line (CellTiter-Blue); type: cell-based, human; conditions: HL60, 48 h incubation; read-out: IC50 against leukemia cell lines HL60
Method: HL60, K562, MV4-11 and NB4 were purchased from CLS Cell Line Service GmbH (Eppelheim, Germany). All cell lines were cultured in RPMI-1640 medium supplemented with 10% fetal bovine serum (FBS) (Thermo Fisher Scientific) and 0.1% ciprofloxacin (2.5 mg/ml; Cipla Limited; Mumbai, India), and were maintained at 37° C. in the presence of 21% O2 and 5% CO2.
Cell viability was determined using the CellTiter®-Blue Cell Viability Assay kit (Promega, Madison, Wis., USA). Approximately 10^4 cells were counted and plated in a 96-well plate in the presence of test compounds ranging from 0.01 to 10 or 20 μM in triplicate and were incubated for 48 h at 37° C. in a humidified incubator. After the incubation period was complete, 20 μL of CellTiter®-Blue Cell Viability Assay reagent was added to each well and incubated for additional 2 h for the development of florescence. Florescence was measured at Ex/Em 540/590 on SpectraMax® i3 Multi-Mode microplate reader (Molecular Devices, LLC; San Jose, Calif., USA) and plotted against drug concentration to determine the IC50 of the test compounds. The IC50 was obtained by non-linear regression model using GraphPad Prism 6.07 (GraphPad Software, Inc, USA).

[1] = Stability in mouse liver microsomes; type: in vitro ADME
Method: Both mouse and human liver microsomes were obtained from Merck KGaA, (Darmstadt, Germany), Cat. No. M9441 (Mouse liver microsomes) and M0317 (Human liver microsomes). Assays were conducted in triplicate in 96-deep well polypropylene plates. […] At five time points, reaction mixture aliquots were transferred to 96-shallow well stop plates on ice containing acetonitrile with 0.1 μM propafenone. […] Standard curves for test compound were generated using 5 concentrations in triplicate that were processed as above but with zero incubation time. Stop plates were centrifuged at 2000 g for 10 min and then supernatant aliquots were transferred to a Waters Aquity® UPLC 700 μL 96-well sample plate with cap mat (Waters, Milford, Mass.). The amount of compound remaining in the supernatant was quantified by LC/MS/MS using a Waters Xevo TQ MS (electrospray positive mode) coupled to a Waters Aquity® UPLC (BEH column, C18). Propafenone was used as the internal standard. GraphPad® Prism v 5.04 was used for nonlinear fitting of time course data to generate t1/2 values.

T47D cell line = test: Cytotoxic assay (MTT) in monolayer model, T47D; type: cell-based; conditions: Homo sapiens, 48 h, read-out: IC50 cytotoxic assay against T47D, monolayer
Method: 1×10^6 cells of the human breast cancer cell lines MCF7 and T47D were seeded and grown at 37° C. with 5% CO2, in a Dulbecco's Modified Eagle Medium (DMEM) with 10% fetal bovine serum (Sigma). The cells were maintained until they reached the confluence over 90%. Then, the cells were subjected to the different treatment conditions before performing the assays.
The cytotoxic effects of MAK compounds were assessed against MCF7 and T47D cell lines using MTT cell viability assay. The cells were treated for 48 hours with different concentrations of each MAK compound and the control cells were subjected to the vehicle (0.1% DMSO). Then, 10% of 5 mg/mL MTT was added to each well containing treated or control cells, and mixture was incubated at 37° C. for 3 hours. After that, the MTT-containing media was replaced with 100 μL DMSO and incubated for 10 minutes at room temperature before measuring the absorbance for each well at 570 nm. According to the measured absorbance, the IC50 was calculated for each compound. All the experiments were performed in biological and experimental replicates.

SMILES | IC50 (HL60 cell line) | loss of compound in mouse liver microsomes ([1]; lacking NADPH) | half-life ([1]; male, CD-1, mouse, pooled liver microsomes, in the presence of NADPH, 37° C., read-out: stability to oxidative metabolism in mouse liver microsomes (t1/2)) | IC50 (T47D cell line)
COc1cccc(C(=O)Nc2ccc(CC(=O)NCc3ccccc3)cc2)c1 [MAK-1, N-(4-(2-(benzylamino)-2-oxoethyl)phenyl)-3-methoxybenzamide] | 3270 ± 150 nM | non-significant loss | 35 min | –
O=C(Cc1ccc(NC(=O)c2cccc(Cl)c2)cn1)NCc1ccccc1 [MAK-6, N-(6-(2-(benzylamino)-2-oxoethyl)pyridin-3-yl)-3-chlorobenzamide] | – | – | – | 1.2 nM
